Assay results reported in patent US10336762B2 (priority 2017, dated 2019).
Where two headings read alike, the source gives them in different places.

Experiments:
TNFα = assay: cells; assay type: cell-based, human; details: Homo sapiens, Monocyte, LPS-stimulated human monocytes, read-out: EC50 TNF
IRAK4 enzyme = IRAK4 enzyme (Homo sapiens (Human), UniProt Q9NWZ3); assay: biochemical; assay type: biochemical; details: IRAK4 enzyme, 500 μM ATP
Sequence of IRAK4 enzyme (Q9NWZ3 whole entry): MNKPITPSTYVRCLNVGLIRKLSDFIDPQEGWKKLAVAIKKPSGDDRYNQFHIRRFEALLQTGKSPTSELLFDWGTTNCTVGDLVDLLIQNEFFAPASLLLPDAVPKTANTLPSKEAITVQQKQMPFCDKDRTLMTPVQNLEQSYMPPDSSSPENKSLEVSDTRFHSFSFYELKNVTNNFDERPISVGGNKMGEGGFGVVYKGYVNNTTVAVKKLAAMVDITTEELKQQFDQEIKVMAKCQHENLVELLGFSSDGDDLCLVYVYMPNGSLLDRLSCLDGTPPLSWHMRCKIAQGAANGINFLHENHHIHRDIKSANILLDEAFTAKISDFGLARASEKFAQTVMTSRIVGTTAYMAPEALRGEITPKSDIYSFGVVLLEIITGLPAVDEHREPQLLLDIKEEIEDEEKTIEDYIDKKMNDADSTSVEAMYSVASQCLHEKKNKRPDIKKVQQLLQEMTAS

SMILES	EC50 (TNFα; TNFα by TR-FRET) [nM]	IC50 (IRAK4 enzyme; TR-FRET) [nM]	EC50 (TNFα; TNFα content) [nM]	IC50 (IRAK4 enzyme; TR-FRET (HTRF)) [nM]
COC(=O)NC[C@H]1CN(c2ccc(Nc3cc(-c4ccc5cc(C#N)cnn45)ncc3C(=O)NC[C@@H](F)C(C)(C)O)cn2)CCO1 [Example 887, methyl (((S)-4-(5-((2-(3-cyanopyrrolo[1,2-b]pyridazin-7-yl)-5-(((R)-2-fluoro-3-hydroxy-3-methylbutyl)carbamoyl)pyridin-4-yl)amino)pyridin-2-yl)morpholin-2-yl)methyl)carbamate]	88	1	–	–
CC(=O)N[C@@H]1CCC[C@H](Nc2cc(-c3ccc4cc(C#N)cnn34)ncc2C(=O)NC[C@@H](F)C(C)(C)O)C1 [Example 532, 4-(((1S,3R)-3-acetamidocyclohexyl)amino)-6-(3-cyano-pyrrolo[1,2-b]pyridazin-7-yl)-N-((R)-2-fluoro-3-hydroxy-3-methylbutyl) nicotinamide]	–	–	122	1
CC(C)(O)[C@H](F)CNC(=O)c1cnc(-c2ccc3cc(C#N)cnn23)cc1N[C@H]1CCN(C2COC2)C1 [Example 110, 6-(3-cyanopyrrolo[1,2-b]pyridazin-7-yl)-N-((R)-2-fluoro-3-hydroxy-3-methylbutyl)-4-(((S)-1-(oxetan-3-yl)pyrrolidin-3-yl)amino) nicotinamide]	–	4	191	–
CC(C)(O)[C@H](F)CNC(=O)c1cnc(-c2ccc3cc(C#N)cnn23)cc1Nc1ccc(C(N)=O)cc1 [Example 381]	–	< 1	18	–
CC(C)(O)[C@H](F)CNC(=O)c1cnc(-c2ccc3cc(C#N)cnn23)cc1Nc1ccc(C2(N3CCOC3=O)CC2)cc1 [Example 876, (R)-6-(3-cyanopyrrolo[1,2-b]pyridazin-7-yl)-N-(2-fluoro-3-hydroxy-3-methylbutyl)-4-((4-(1-(2-oxooxazolidin-3-yl)cyclo-propyl)phenyl)amino) nicotinamide]	24	< 1	–	–
CC(C)(O)[C@H](F)CNC(=O)c1cnc(-c2ccc3cc(C#N)cnn23)cc1NC12CCC(C(=O)N3CC(F)C3)(CC1)CC2 [Example 400, (R)-6-(3-cyanopyrrolo[1,2-b]pyridazin-7-yl)-N-(2-fluoro-3-hydroxy-3-methylbutyl)-4-((4-(3-fluoroazetidine-1-carbonyl)bicyclo[2.2.2]octan-1-yl)amino) nicotinamide]	–	–	21	1
CC(C)(O)[C@H](F)CNC(=O)c1cnc(-c2ccc3cc(C#N)cnn23)cc1NC1C2CCC1CN(S(C)(=O)=O)C2 (stereo partly drawn) [Example 31, 6-(3-cyanopyrrolo[1,2-b]pyridazin-7-yl)-N-((R)-2-fluoro-3-hydroxy-3-methylbutyl)-4-((3-(methylsulfonyl)-3-azabicyclo[3.2.1]octan-8-yl)amino)nicotinamide]	–	16	757	–
CC(C)(O)[C@H](F)CNC(=O)c1cnc(-c2ccc3cc(C#N)cnn23)cc1N[C@@H]1CCCN(S(C)(=O)=O)C1 [Example 254, 6-(3-cyanopyrrolo[1,2-b]pyridazin-7-yl)-N-((R)-2-fluoro-3-hydroxy-3-methylbutyl)-4-(((R)-1-(methylsulfonyl)piperidin-3-yl)amino)nicotinamide]	–	17	2020	–
COC(=O)N[C@H]1CC[C@H](Nc2cc(-c3ccc4cc(C#N)cnn34)ncc2C(=O)NCC#N)CC1 [Example 268, Methyl ((1R,4R)-4-((5-((cyanomethyl)carbamoyl)-2-(3-cyanopyrrolo[1,2-b]pyridazin-7-yl)pyridin-4-yl)amino)cyclohexyl)carbamate]	–	< 1	29	–
CC(C)(O)[C@H](F)CNC(=O)c1cnc(-c2ccc3cc(C#N)cnn23)cc1NC12CCC(NC(=O)C(F)(F)F)(CC1)CC2 [Example 295, (R)-6-(3-cyanopyrrolo[1,2-b]pyridazin-7-yl)-N-(2-fluoro-3-hydroxy-3-methyl-butyl)-4-((4-(2,2,2-trifluoro-acetamido)bicyclo[2.2.2]octan-1-yl)amino) nicotinamide]	–	1	38	–
CC(C)(O)[C@H](F)CNC(=O)c1cnc(-c2ccc3cc(C#N)cnn23)cc1Nc1cnc(N2CC3(CCOCC3)C2)nc1 [Example 689, (R)-4-((2-(7-oxa-2-azaspiro[3.5]nonan-2-yl)pyrimidin-5-yl)amino)-6-(3-cyanopyrrolo[1,2-b]pyridazin-7-yl)-N-(2-fluoro-3-hydroxy-3-methylbutyl)nicotinamide]	–	–	180	1
COC(=O)N1CCC(n2cc(Nc3cc(-c4ccc5cc(C#N)cnn45)ncc3C(=O)NC[C@@H](F)C(C)(C)O)cn2)CC1 [Example 235, (R)-methyl 4-(4-((2-(3-cyanopyrrolo[1,2-b]pyridazin-7-yl)-5-((2-fluoro-3-hydroxy-3-methylbutyl)carbamoyl)pyridin-4-yl)amino)-1H-pyrazol-1-yl)piperidine-1-carboxylate]	–	2	166	–
CNC(=O)C1CCC(Nc2cc(-c3ccc4cc(C#N)cnn34)ncc2C(=O)NC[C@@H](F)C(C)(C)O)CC1 (stereo partly drawn) [Example 182, 6-(3-cyanopyrrolo[1,2-b]pyridazin-7-yl)-N-((R)-2-fluoro-3-hydroxy-3-methylbutyl)-4-(((1r,4R)-4-(methylcarbamoyl)cyclohexyl)amino) nicotinamide]	–	1	70	–
CC(C)(C)OC(=O)N[C@H]1CC[C@H](Nc2cc(-c3ccc4cc(C#N)cnn34)ncc2C(=O)NC[C@@H](F)C(C)(C)O)CC1 [Example 305, tert-butyl ((1R,4r)-4-((2-(3-cyanopyrrolo[1,2-b]pyridazin-7-yl-5-(((R)-2-fluoro-3-hydroxy-3-methylbutyl)carbamoyl)pyridin-4-yl)amino)cyclohexyl) carbamate]	–	1	337	–
CC(C)(O)[C@H](F)CNC(=O)c1cnc(-c2ccc3cc(C#N)cnn23)cc1NC12CCC(C(=O)N3CCC3)(CC1)CC2 [Example 408, (R)-4-((4-(azetidine-1-carbonyl)bicyclo[2.2.2]octan-1-yl)amino)-6-(3-cyanopyrrolo[1,2-b]pyridazin-7-yl)-N-(2-fluoro-3-hydroxy-3-methylbutyl)nicotinamide]	–	–	31	1
COC(=O)N1CC(CNC(=O)c2cnc(-c3ccc4cc(C#N)cnn34)cc2NC23CCC(O)(CC2)CC3)C1 [Example 744, methyl 3-((6-(3-cyano-pyrrolo[1,2-b]pyridazin-7-yl)-4-((4-hydroxy-bicyclo[2.2.2]octan-1-yl)amino)nicotinamido)methyl)azetidine-1-carboxylate]	–	–	157	2
CC(C)(O)[C@H](F)CNC(=O)c1cnc(-c2ccc3cc(C#N)cnn23)cc1Nc1ccc(N2CCCC2)nc1 [Example 877, (R)-6-(3-cyano-pyrrolo[1,2-b]pyridazin-7-yl)-N-(2-fluoro-3-hydroxy-3-methylbutyl)-4-((6-(pyrrolidin-1-yl)pyridin-3-yl)amino) nicotinamide]	46	2	–	–
N#Cc1cnn2c(-c3cc(NC45CCC(O)(CC4)CC5)c(C(=O)NCC4(F)CCC4)cn3)ccc2c1 [Example 739, 6-(3-cyanopyrrolo[1,2-b]pyridazin-7-yl)-N-((1-fluorocyclobutyl)methyl)-4-((4-hydroxybicyclo[2.2.2]octan-1-yl)amino) nicotinamide]	–	–	277	4
CC(C)Nc1cc(-c2ccc3cc(C#N)cnn23)ncc1C(=O)N[C@@H]1CCC[C@H](O)C1 [Example 193, 6-(3-cyanopyrrolo[1,2-b]pyridazin-7-yl)-N-((1R,3S)-3-hydroxycyclohexyl)-4-(isopropylamino) nicotinamide]	–	3	141	–
CC(C)(O)[C@H](F)CNC(=O)c1cnc(-c2ccc3cc(C#N)cnn23)cc1Nc1ccc(C(N)=O)nc1 [Example 601, (R)-5-((2-(3-cyano-pyrrolo[1,2-b]pyridazin-7-yl)-5-((2-fluoro-3-hydroxy-3-methylbutyl)carbamoyl)pyridin-4-yl)amino) picolinamide]	–	–	64	< 1
CC(C)(O)[C@H](F)CNC(=O)c1cnc(-c2ccc3cc(C#N)cnn23)cc1NC12CCC(C(=O)N3CCN(C4COC4)CC3)(CC1)CC2 [Example 395, (R)-6-(3-cyanopyrrolo[1,2-b]pyridazin-7-yl)-N-(2-fluoro-3-hydroxy-3-methylbutyl)-4-((4-(4-(oxetan-3-yl)piperazine-1-carbonyl)bicyclo[2.2.2]octan-1-yl)amino) nicotinamide]	–	3	256	–
COC(=O)N1CCOC[C@@H]1CNc1cc(-c2ccc3cc(C#N)cnn23)ncc1C(=O)NC[C@@H](F)C(C)(C)O [Example 919, (S)-methyl 3-(((2-(3-cyano-pyrrolo[1,2-b]pyridazin-7-yl)-5-(((R)-2-fluoro-3-hydroxy-3-methylbutyl)carbamoyl)pyridin-4-yl)amino)methyl)morpholine-4-carboxylate]	707	37	–	–
CCS(=O)(=O)CCCNc1cc(-c2ccc3cc(C#N)cnn23)ncc1C(=O)NC[C@@H](F)C(C)(C)O [Example 439, (R)-6-(3-cyanopyrrolo[1,2-b]pyridazin-7-yl)-4-((3-(ethylsulfonyl)propyl)amino)-N-(2-fluoro-3-hydroxy-3-methylbutyl) nicotinamide]	–	–	40	< 1
[2H]C([2H])([2H])N(C(=O)C12CCC(Nc3cc(-c4ccc5cc(C#N)cnn45)ncc3C(=O)NC[C@@H](F)C(C)(C)O)(CC1)CC2)C([2H])([2H])[2H] [Example 404, (R)-4-((4-(bis(methyl-d3)carbamoyl)bicyclo[2.2.2]octan-1-yl)amino)-6-(3-cyanopyrrolo[1,2-b]pyridazin-7-yl)-N-(2-fluoro-3-hydroxy-3-methylbutyl)nicotinamide]	–	–	11	1
N#Cc1cnn2c(-c3cc(NC45CCC(O)(CC4)CC5)c(C(=O)NCC(=O)N4CC(F)(F)C4)cn3)ccc2c1 [Example 331, 6-(3-cyanopyrrolo[1,2-b]pyridazin-7-yl)-N-(2-(3,3-difluoroazetidin-1-yl)-2-oxoethyl)-4-((4-hydroxybicyclo[2.2.2]octan-1-yl)amino) nicotinamide]	–	< 1	25	–
